Experimental data taken from US10294202B2, “Pyrrolidinones as herbicides” (FMC Corporation, priority 2013, dated 2019).

Assays:
[1] = test system: barnyardgrass; assay: Test A pre-/postemergence herbicide test; type: in vivo, Echinochloa crus-galli
Outline: (§1)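 Greenhouse pot test with pre- and postemergence application of surfactant-containing solvent formulations. Postemergence plants were 2–10 cm, one- to two-leaf stage. Response scored visually after ~10 days, 0 (no effect) to 100 (complete control).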

[2] = test system: morningglory; assay: Test A pre-/postemergence herbicide test; type: in vivo, Ipomoea spp.
Outline: as §1

[3] = test system: corn; assay: Test A pre-/postemergence herbicide test; type: in vivo, Zea mays
Outline: as §1

[4] = test system: barnyardgrass; assay: Test C flooded paddy test; type: in vivo, Echinochloa crus-galli; details: Flood
Excerpt: (§2) Plant species in the flooded paddy test consisted of rice (Oryza sativa), sedge, umbrella (small-flower umbrella sedge, Cyperus difformis), ducksalad (Heteranthera limosa), and barnyardgrass (Echinochloa crus-galli) grown to the 2-leaf stage for testing. At time of treatment, test pots were flooded to 3 cm above the soil surface, treated by application of test compounds directly to the paddy water, and then maintained at that water depth for the duration of the test. Treated plants and controls were maintained in a greenhouse for 13 to 15 days, after which time all species were compared to controls and visually evaluated. Plant response ratings, summarized in Table C, are based on a scale of 0 to 100 where 0 is no effect and 100 is complete control. A dash (-) response means no test result.

[5] = test system: velvetleaf; assay: Test A pre-/postemergence herbicide test; type: in vivo, Abutilon theophrasti
Outline: as §1

[6] = test system: pigweed; assay: Test A pre-/postemergence herbicide test; type: in vivo, Amaranthus retroflexus
Outline: as §1

[7] = test system: sedge, umbrella; assay: Test C flooded paddy test; type: in vivo, Cyperus difformis; details: Flood
Excerpt: as §2

[8] = test system: giant foxtail; assay: Test A pre-/postemergence herbicide test; type: in vivo, Setaria faberii
Outline: as §1

[9] = test system: crabgrass, large; assay: Test A pre-/postemergence herbicide test; type: in vivo, Digitaria sanguinalis
Outline: as §1

[10] = test system: wheat; assay: Test A pre-/postemergence herbicide test; type: in vivo, Triticum aestivum
Outline: as §1

[11] = test system: ducksalad; assay: Test C flooded paddy test; type: in vivo, Heteranthera limosa; details: Flood
Excerpt: as §2

[12] = test system: rice; assay: Test C flooded paddy test; type: in vivo, Oryza sativa; details: Flood
Excerpt: as §2

[13] = Postemergence, 1000 g ai/ha, 0 to 100 scale (0 no effect, 100 complete control)
[14] = Preemergence, 1000 g ai/ha, visual rating on 0 to 100 scale (0 no effect, 100 complete control), approx. 10 days
[15] = 31 g ai/ha, scale of 0 to 100 where 0 is no effect and 100 is complete control, 13 to 15 days
[16] = 62 g ai/ha, scale of 0 to 100 where 0 is no effect and 100 is complete control, 13 to 15 days
[17] = 125 g ai/ha, scale of 0 to 100 where 0 is no effect and 100 is complete control, 13 to 15 days
[18] = Postemergence, 125 g ai/ha, 0 to 100 scale, 0 no effect, 100 complete control
[19] = Postemergence, 500 g ai/ha, 0 to 100 scale (0 no effect, 100 complete control)
[20] = Preemergence, 125 g ai/ha, visual rating on 0 to 100 scale (0 no effect, 100 complete control)
[21] = preemergence, 500 g ai/ha, 0 to 100 scale

Compound: O=C1NCC(c2ccc(F)c(F)c2)C1C(=O)Nc1cccc(Cl)c1 (racemic) [Compound 18]
- Plant response rating, Barnyardgrass [1, 13]: 50
- Plant response rating, Barnyardgrass [1, 14]: 80
- Plant response rating, Morningglory [2, 13]: 0
- Plant response rating, Morningglory [2, 14]: 0
- Plant response rating, Corn [3, 13]: 0
- Plant response rating, Corn [3, 14]: 0
- Plant response rating, Barnyardgrass [4, 15]: 0
- Plant response rating, Barnyardgrass [4, 16]: 0
- Plant response rating, Barnyardgrass [4, 17]: 0
- Plant response rating, Barnyardgrass ([4]; 250 g ai/ha, scale 0 to 100): 0
- Plant response rating, Velvetleaf [5, 13]: 0
- Plant response rating, Velvetleaf [5, 14]: 0
- Plant response rating, Pigweed [6, 13]: 0
- Plant response rating, Pigweed [6, 14]: 0
- Plant response rating, Sedge, Umbrella [7, 15]: 0
- Plant response rating, Sedge, Umbrella [7, 16]: 0
- Plant response rating, Sedge, Umbrella [7, 17]: 0
- Plant response rating, Sedge, Umbrella ([7]; 250 g ai/ha, scale 0 to 100): 0
- Plant response rating, Foxtail, Giant [8, 13]: 70
- Plant response rating, Foxtail, Giant [8, 14]: 80
- Plant response rating, Crabgrass, Large [9, 13]: 70
- Plant response rating, Crabgrass, Large [9, 14]: 80
- Plant response rating, Wheat [10, 13]: 0
- Plant response rating, Wheat [10, 14]: 0
- Plant response rating, Ducksalad [11, 15]: 0
- Plant response rating, Ducksalad [11, 16]: 0
- Plant response rating, Ducksalad [11, 17]: 0
- Plant response rating, Ducksalad ([11]; 250 g ai/ha, scale 0 to 100): 0
- Plant response rating, Rice [12, 15]: 0
- Plant response rating, Rice [12, 16]: 0
- Plant response rating, Rice [12, 17]: 0
- Plant response rating, Rice ([12]; 250 g ai/ha, scale 0 to 100): 0

Compound: O=C1NCC(c2ccc(Cl)c(Cl)c2)C1C(=O)Nc1cccc(F)c1F (racemic) [Compound 25]
- Plant response rating, Barnyardgrass [1, 13]: 80
- Plant response rating, Barnyardgrass [1, 14]: 80
- Plant response rating, Morningglory [2, 13]: 10
- Plant response rating, Morningglory [2, 14]: 0
- Plant response rating, Corn [3, 13]: 0
- Plant response rating, Corn [3, 14]: 0
- Plant response rating, Barnyardgrass [4, 16]: 0
- Plant response rating, Barnyardgrass ([4]; 250 g ai/ha, scale 0 to 100): 0
- Plant response rating, Velvetleaf [5, 13]: 10
- Plant response rating, Velvetleaf [5, 14]: 0
- Plant response rating, Pigweed [6, 13]: 0
- Plant response rating, Pigweed [6, 14]: 0
- Plant response rating, Sedge, Umbrella [7, 16]: 0
- Plant response rating, Sedge, Umbrella ([7]; 250 g ai/ha, scale 0 to 100): 0
- Plant response rating, Foxtail, Giant [8, 13]: 90
- Plant response rating, Foxtail, Giant [8, 14]: 90
- Plant response rating, Crabgrass, Large [9, 13]: 80
- Plant response rating, Crabgrass, Large [9, 14]: 90
- Plant response rating, Wheat [10, 13]: 0
- Plant response rating, Wheat [10, 14]: 0
- Plant response rating, Ducksalad [11, 16]: 0
- Plant response rating, Ducksalad ([11]; 250 g ai/ha, scale 0 to 100): 60
- Plant response rating, Rice [12, 16]: 0
- Plant response rating, Rice ([12]; 250 g ai/ha, scale 0 to 100): 0

Compound: O=C1NCC(c2ccsc2)C1C(=O)Nc1ccccc1F (racemic) [Compound 29]
- Plant response rating, Barnyardgrass [1, 18]: 0
- Plant response rating, Barnyardgrass [1, 19]: 0
- Barnyardgrass plant response rating [1, 20]: 0
- Plant response rating, Barnyardgrass ([1]; preemergence, 500 g ai/ha, 0 to 100 scale (0 no effect, 100 complete control)): 50
- Plant response rating, Morningglory [2, 18]: 0
- Plant response rating, Morningglory [2, 19]: 0
- Morningglory plant response rating [2, 20]: 0
- Plant response rating, Morningglory [2, 21]: 0
- Plant response rating, Corn [3, 18]: 0
- Plant response rating, Corn [3, 19]: 0
- Corn plant response rating [3, 20]: 0
- Plant response rating, Corn [3, 21]: 0
- Plant response rating, Barnyardgrass [4, 15]: 0
- Plant response rating, Barnyardgrass [4, 16]: 0
- Plant response rating, Barnyardgrass [4, 17]: 0
- Plant response rating, Barnyardgrass ([4]; 250 g ai/ha, scale 0 to 100): 0
- Plant response rating, Velvetleaf [5, 18]: 0
- Plant response rating, Velvetleaf [5, 19]: 0
- Velvetleaf plant response rating [5, 20]: 0
- Plant response rating, Velvetleaf [5, 21]: 0
- Plant response rating, Pigweed [6, 18]: 0
- Plant response rating, Pigweed [6, 19]: 0
- Pigweed plant response rating [6, 20]: 0
- Plant response rating, Pigweed [6, 21]: 0
- Plant response rating, Sedge, Umbrella [7, 15]: 0
- Plant response rating, Sedge, Umbrella [7, 16]: 0
- Plant response rating, Sedge, Umbrella [7, 17]: 0
- Plant response rating, Sedge, Umbrella ([7]; 250 g ai/ha, scale 0 to 100): 0
- Plant response rating, Foxtail, Giant [8, 18]: 0
- Plant response rating, Foxtail, Giant [8, 19]: 0
- Foxtail, Giant plant response rating [8, 20]: 0
- Plant response rating, Foxtail, Giant [8, 21]: 0
- Plant response rating, Crabgrass, Large [9, 18]: 0
- Plant response rating, Crabgrass, Large [9, 19]: 0
- Crabgrass, Large plant response rating [9, 20]: 30
- Plant response rating, Crabgrass, Large [9, 21]: 70
- Plant response rating, Wheat [10, 18]: 0
- Plant response rating, Wheat [10, 19]: 0
- Wheat plant response rating [10, 20]: 0
- Plant response rating, Wheat [10, 21]: 0
- Plant response rating, Ducksalad [11, 15]: 0
- Plant response rating, Ducksalad [11, 16]: 0
- Plant response rating, Ducksalad [11, 17]: 0
- Plant response rating, Ducksalad ([11]; 250 g ai/ha, scale 0 to 100): 40
- Plant response rating, Rice [12, 15]: 0
- Plant response rating, Rice [12, 16]: 0
- Plant response rating, Rice [12, 17]: 0
- Plant response rating, Rice ([12]; 250 g ai/ha, scale 0 to 100): 0

Compound: Cc1ccccc1NC(=O)C1C(=O)NCC1c1ccc(F)c(F)c1 (racemic) [Compound 19]
- Plant response rating, Barnyardgrass [1, 13]: 90
- Plant response rating, Barnyardgrass [1, 14]: 90
- Plant response rating, Morningglory [2, 13]: 0
- Plant response rating, Morningglory [2, 14]: 0
- Plant response rating, Corn [3, 13]: 0
- Plant response rating, Corn [3, 14]: 0
- Plant response rating, Barnyardgrass [4, 15]: 0
- Plant response rating, Barnyardgrass [4, 16]: 0
- Plant response rating, Barnyardgrass [4, 17]: 0
- Plant response rating, Barnyardgrass ([4]; 250 g ai/ha, scale 0 to 100): 0
- Plant response rating, Velvetleaf [5, 13]: 10
- Plant response rating, Velvetleaf [5, 14]: 0
- Plant response rating, Pigweed [6, 13]: 0
- Plant response rating, Pigweed [6, 14]: 0
- Plant response rating, Sedge, Umbrella [7, 15]: 0
- Plant response rating, Sedge, Umbrella [7, 16]: 0
- Plant response rating, Sedge, Umbrella [7, 17]: 0
- Plant response rating, Sedge, Umbrella ([7]; 250 g ai/ha, scale 0 to 100): 0
- Plant response rating, Foxtail, Giant [8, 13]: 80
- Plant response rating, Foxtail, Giant [8, 14]: 90
- Plant response rating, Crabgrass, Large [9, 13]: 90
- Plant response rating, Crabgrass, Large [9, 14]: 90
- Plant response rating, Wheat [10, 13]: 30
- Plant response rating, Wheat [10, 14]: 0
- Plant response rating, Ducksalad [11, 15]: 0
- Plant response rating, Ducksalad [11, 16]: 0
- Plant response rating, Ducksalad [11, 17]: 0
- Plant response rating, Ducksalad ([11]; 250 g ai/ha, scale 0 to 100): 0
- Plant response rating, Rice [12, 15]: 0
- Plant response rating, Rice [12, 16]: 0
- Plant response rating, Rice [12, 17]: 0
- Plant response rating, Rice ([12]; 250 g ai/ha, scale 0 to 100): 0
